One series relates to MCF-7 cells. The note with it: compared to E2; cited from earlier work.
Series [1] can be described thus: Ex.8 therapeutic HIE rat model (E4 alone or combinations): rectal temperature. The series is classed as in vivo. The conditions noted are these: vs sham. On the procedure:
All the compounds used for in vivo studies were dissolved in absolute Ethanol (ETOH) and further diluted in saline solution at a final concentration of ETOH 10%. An equal volume (5 μ1/g) of the solution was injected intraperitoneally (ip) into the pups from study groups. Rat pups from the vehicle group were ip injected a saline solution containing 10% ETOH. Rat pups from the Sham group were not injected at all.
To study the therapeutic effect of estetrol, newborn rat pups were assigned to one of the following 14 groups at postnatal day 7 (FIG. 23(B)): Sham group (n=12), Vehicle (n=15), 5 mg/kg/day E4 (n=11), 10 mg/kg/day E4 (n=11), 5 mg/kg/day E4+1.6 mg/kg/day PROG (n=11), 10 mg/kg/day E4+1.6 mg/kg/day PROG (n=11), 5 mg/kg/day E4+16 mg/kg/day PROG (n=11), 10 mg/kg/day E4+16 mg/kg/day PROG (n=13), 5 mg/kg/day E4+136 ng//kg/day E2 (n=11), 10 mg/kg/day E4+136 ng/kg/day E2 (n=11), 5 mg/kg/day E4+1.6 mg/kg/day PROG+136 ng/kg/day E2 (n=12), 10 mg/kg/day E4+1.6 mg/kg/day PROG+136 ng/kg/day E2 (n=11), 5 mg/kg/day E4+16 mg/kg/day PROG+136 ng/kg/day E2 (n=11), 10 mg/kg/day E4+16 mg/kg/day PROG+136 ng/kg/day (n=12) groups. […]
The rectal temperature of the rat pups was measured with a multipurpose thermometer (BAT-10R, Physitemp Instruments Inc., Clifton, N.J., US) along with a rectal probe (RET-4, BioMedical Instruments, Zollnitz, Germany) at 0, 2, and 4 hours after exposure to hypoxic insult. […]

A short description of series [2]: Ex.3 neuroprotective HIE rat model: body weight. In kind it is in vivo. On the procedure: Newborn rat pups were assigned to one of the following 6 groups from postnatal day 4: Sham group (n=24), Vehicle group (n=14), E4 1 mg/kg/per day group (n=11), E4 5 mg/kg/per day group (n=14), E4 10 mg/kg/per day group (n=14), or E4 50 mg/kg/per day group (n=19). From postnatal day 4, rat pups were intraperitoneally injected either vehicle (Vehicle group) or E4 (1, 5, 10, or 50 mg/kg/per day in accordance to the E4 group assignment) or neither vehicle nor E4 (Sham group). At day 7, 30 minutes after last injection, animals were anesthetized with isoflurane (induction, 3.0%; maintenance, 1.5%), and the rat pups from Vehicle and E4 groups passed through surgery encompassing left common carotid artery double ligation and cut. After the procedure, the pups were returned to their dams and were allowed to recover for 1 hour. The pups were then placed in the humidified hypoxic in vivo cabinet (CoyLab, Grass Lake, Mich., USA). Hypoxia was produced by the inhalation of 11%-8% of oxygen balanced by nitrogen at decreased concentration of oxygen for 20 minutes, followed by inhalation of 8% oxygen and 92% nitrogen at constant concentration for 35 minutes. All the manipulations were performed at 37° C. The Sham group went through similar procedures without left common carotid artery ligation followed by hypoxia nor injection. Rat pups recovered with their dams and reared normally until being sacrificed at postnatal day 14.
To monitor the post-operative well-being of the rat pups due to the performed manipulations and estetrol pre-treatment, the body weight was monitored from postnatal day 7 to day 14 inclusive.

Series [3] concerns vascular endothelial growth factor (VEGF). As to the kind of experiment: Ex.8 therapeutic HIE rat model: VEGF staining. The series is classed as in vivo. The conditions noted are these: 5 mg/kg/day E4, hippocampus (same region). The method, then: (§1) To study the therapeutic effect of estetrol, newborn rat pups were assigned to one of the following 14 groups at postnatal day 7 (FIG. 23(B)): Sham group (n=12), Vehicle (n=15), 5 mg/kg/day E4 (n=11), 10 mg/kg/day E4 (n=11), 5 mg/kg/day E4+1.6 mg/kg/day PROG (n=11), 10 mg/kg/day E4+1.6 mg/kg/day PROG (n=11), 5 mg/kg/day E4+16 mg/kg/day PROG (n=11), 10 mg/kg/day E4+16 mg/kg/day PROG (n=13), 5 mg/kg/day E4+136 ng//kg/day E2 (n=11), 10 mg/kg/day E4+136 ng/kg/day E2 (n=11), 5 mg/kg/day E4+1.6 mg/kg/day PROG+136 ng/kg/day E2 (n=12), 10 mg/kg/day E4+1.6 mg/kg/day PROG+136 ng/kg/day E2 (n=11), 5 mg/kg/day E4+16 mg/kg/day PROG+136 ng/kg/day E2 (n=11), 10 mg/kg/day E4+16 mg/kg/day PROG+136 ng/kg/day (n=12) groups. […] After surgery, the pups were returned to their dams and allowed to recover for 1 hour. The pups were then placed in a humidified hypoxic in vivo cabinet (CoyLab). […]
(§2) The sections were heated in 10 mmol/L citrate buffer (pH 6.0) at 100° C. for 10 minutes. […] Samples were analyzed with the aid of a microscope (Olympus Vanox AHBT3, Olympus), and the ImageJ software 15 (NIH). The percentage of positively stained cells was quantified as a sum of positively stained either DCX or VEGF cells divided by the total number of DAPI positive cells expressed in percentage.

The test system of the next series is doublecortin (DCX). As to the kind of experiment: Ex.8 therapeutic HIE rat model: doublecortin staining. The series is classed as in vivo. The method, then: as §1, §2

For the molecule `C[C@]12CC[C@@H]3c4ccc(O)cc4CC[C@H]3[C@@H]1[C@@H](O)[C@@H](O)[C@@H]2O` [E4, 1,3,5(10)-estratrien-3,15α,16α,17β-tetrol], the “estrogenic activity in growth promotion of MCF-7 cells” value in the series with MCF-7 cells is given as “weak estrogen”. Further, the rectal temperature entry in series [1] (5 mg/kg/day E4, 4 h after HI, E4+E2 and E4+16 mg/kg/day PROG+E2) is “significantly higher rectal temperature”; in series [1] (10 mg/kg/day E4, 4 h after HI, E4+E2 and E4+16 mg/kg/day PROG) it was “significant increase of the rectal temperature”. Further, the body weight result in series [2] (1 mg/kg ip PND4-7 before HI, PND 10, 11 and 12, vs vehicle) is “significantly higher body weight than the vehicle group”; in series [2] (1 mg/kg ip PND4-7 before HI, PND 14, vs vehicle) it was “significantly higher body weight than the vehicle group”; in series [2] (5 mg/kg ip PND4-7 before HI, PND 8, 9, 10, 12, vs sham), “sham operated animals body weight was significantly higher”; in series [2] (5 mg/kg ip PND4-7 before HI, PND 14, vs vehicle), “significantly higher body weight than the vehicle group”; in series [2] (10 mg/kg ip PND4-7 before HI, PND 9, vs vehicle) it was “significantly higher body weight than the vehicle group”; in series [2] (10 mg/kg ip PND4-7 before HI, PND 10, 11 and 12, vs vehicle), “significantly higher body weight than the vehicle group”. For the same molecule, the body weight entry is “significantly higher body weight than the vehicle group” in series [2] (10 mg/kg ip PND4-7 before HI, PND 14, vs vehicle); “sham operated animals body weight was significantly higher” in series [2] (50 mg/kg ip PND4-7 before HI, PND 8, 9, 10, 12, vs sham); “sham operated animals had significantly higher body weight” in series [2] (50 mg/kg ip PND4-7 before HI, PND 11, 13, 14, vs sham); “significantly higher post-operative body weight than the vehicle pre-treated animals” in series [2] (estetrol pre-treated (1, 5, 10, 50 mg/kg) ip PND4-7 before HI, PND 8 and 13, vs vehicle). Moreover, the “VEGF positively stained cell percentage” value in series [3] was 54.05±3.51%. Besides, in the series on doublecortin (DCX) (5 mg/kg/day E4, CA2/CA3), the “percentage of DCX positively stained cells” value was 15.09±12.17%. For the same molecule, the “DCX positively stained cell percentage” value in the series with doublecortin (DCX) (5 mg/kg/day E4, hippocampus) worked out at 59.73±3.44%.

Values taken from patent US9808470B2, “Estrogenic components for use in the treatment of neurological disorders” (UNIVERSITE DE LIEGE, priority 2012, dated 2017).
